Experiment: Stability of peracetic acid over a single disinfection cycle at different disinfection solution temperatures, FIGS. 4A-4D
Type: physicochemical
Settings: PAA alone or combined with builders/part (B)
Source text: FIGS. 4A-4D are graphs that show the stability of peracetic acid over the time required for a single disinfection cycle, at different disinfection solution temperatures, and as a function of the presence or absence of two different builders formulations as well as the supplemental medium (B) of the present invention.
In the following Examples 6-8, parts (A) and (B) are as described above for Examples 1-5. Builders 1 contains two sodium phosphates, benzotriazole, tetrasodium ethylene diamine tetraacetate, a sodium molybdate, sodium hydroxide, an ethoxylated polyoxypropylene, a polyacrylate, a sodium phosphate, and water. Builders 2 contains a sodium phosphate, a sodium benzotriazole and a sodium salt of ethylene diamine tetraacetic acid.
FIGS. 4A-4D show the stability of peracetic acid over the time required for a single disinfection cycle (stability), at different disinfection solution temperatures when used alone (FIG. 4A), or in combination with prior art Builders 1 (FIG. 4B) or Builders 2 (FIG. 4C) or the supplemental medium part (B) of the present invention (FIG. 4D). The trend of each line can be used to understand the kinetics of stability (or conversely, the rate and amount of degradation of PAA). […]

For CC(=O)OO [PAA, peracetic acid], the “stability of PAA solution” value was “relatively stable”.

— patent US10307498B2, “Cleaning and disinfecting composition” (American Sterilizer Company, priority 2015, dated 2019)
